From US5801180A, “Quinazoline derivatives” (priority 1991, dated 1998)
Blank lines part the entries; values can stand above or below the compound they belong to.

Biological target: T1, cGMP-PDE prepared from the swine aeorta (Sus scrofa, UniProt A0A287B475)
T1 construct: The swine aeorta was sliced; from tissue; host or cells: swine aorta, 100000×g supernatant, DEAE-Toyopearl 650S fraction
Assay: Enzyme inhibiting action with the use of cGMP-PDE prepared from the swine aorta
Format: biochemical
Details: CaM-independent cGMP-PDE, 1 mM EGTA, 1 μM cGMP substrate, DMSO 4% or below
Method: Enzyme inhibiting action with the use of cGMP-PDE prepared from the swine aeorta
The enzymatic activity of the cGMP-PDE prepared from the swine aeorta was determined according to the method of Thompson et al. ^(1). The enzymatic activity thereof was determined in the presence of 1 mM EGTA by the use of 1 μM cGMP as a substrate. The compound of the present invention was dissolved in DMSO, added to the reaction liquid and examined for the inhibitory activity. The final concentration of DMSO in the reaction liquid was adjusted to 4% or below. (1) Thompson, W. J. and Strada, S. J., Cyclic Nucleotide Phosphodiesterase (PDE), in Methods of Enzymatic Analysis, vol 4, p.127-234, 1984.
The swine aeorta was sliced, followed by the addition of 10 times by volume as much Buffer A (20 mM Tris/HCl, 2 mM Mg acetate, 1 mM Dithiothreitol, 5 mM EDTA, 1400 TIU/liter aprotinin, 10 mg/liter leupeptin, 1 mM benzamidine, 0.2 mM PMSF, pH 7.5). The obtained mixture was homogenized and the homogenate was centrifuged at 100000×g for one hour. The obtained supernatant was supplied a DEAE-Toyopearl 650S (Tosoh, Tokyo, Japan) column. After the column was washed with Buffer B (50 mM Tris/HCl, 0.1 mM EGTA, 2 mM Mg acetate, 1 mM Dithiothreitol, 0.2 mM PMSF, pH 7.5), gradient elution with 0.05 to 0.4M NaCl was conducted. Thus, CaM-independent cGMP-PDE fractions were obtained.

Structure (SMILES): COc1ccc(CNc2ncnc3c(OC)c(OC)c(OC)cc23)cc1 [Example 7, 4-(4-Methoxybenzyl)amino-6,7,8-trimethoxyquinazoline]
- IC50: 1000 nM

Structure (SMILES): COc1cc2c(NCc3ccc4c(c3)OCCO4)ncnc2c(OC)c1OC [Example 25, 4-(4-Ethylenedioxybenzyl)amino-6,7,8-trimethoxyquinazoline]
- IC50: 780 nM

Structure (SMILES): COc1cc2c(NCc3cc4c(cc3Cl)OCO4)ncnc2c(OC)c1OC [Example 33, 4-(2-Chloro-4,5-methylenedioxybenzyl)amino-6,7,8-trimethoxyquinazoline]
- IC50: 370 nM

Structure (SMILES): COc1cc2c(NC(C)c3ccc4c(c3)OCO4)ncnc2c(OC)c1OC (stereo not drawn) [Example 38, 4-(α-Methyl-3,4-methylenedioxybenzyl)amino-6,7,8-trimethoxyquinazolin]
- IC50: 420 nM

Structure (SMILES): CCN(Cc1ccc2c(c1)OCO2)c1ncnc2c(OC)c(OC)c(OC)cc12 [Example 40]
- IC50: 650 nM

Structure (SMILES): CCOC(=O)CN(Cc1ccc2c(c1)OCO2)c1ncnc2c(OC)c(OC)c(OC)cc12 [Example 41, 4-[N-(Ethoxycarbonylmethyl)-(3,4-methylenedioxybenzyl)amino]-6,7,8-trimethoxyquinazoline]
- IC50: 350 nM

Structure (SMILES): COCCN(Cc1ccc2c(c1)OCO2)c1ncnc2c(OC)c(OC)c(OC)cc12 [Example 42, 4-[N-(2-Methoxyethyl)-(3,4-methylenedioxybenzyl)-amino]-6,7,8-trimethoxyquinazoline]
- IC50: 190 nM

Structure (SMILES): CSc1ccc2ncnc(NCc3ccc4nc[nH]c4c3)c2c1 [Example 52, 4-(Benzimidazol-5-ylmethyl)amino-6-methylthioquinazoline]
- IC50: 69 nM

Structure (SMILES): COCCN(Cc1ccc2c(c1)OCO2)c1ncnc2ccc(SC)cc12 [Example 53, 4-[N-(2-Methoxyethyl)-(3,4-methylenedioxybenzyl)amino]-6-methylthioquinazoline]
- IC50: 120 nM

Structure (SMILES): CSc1ccc2ncnc(N(CCO)Cc3ccc4c(c3)OCO4)c2c1 [Example 54, 4-[N-(2-Hydroxyethyl)-(3,4-methylenedioxybenzyl)amino]-6-methylthioquinazoline]
- IC50: 470 nM

Continued, values first:

- IC50: 390 nM
Structure (SMILES): COc1cc2c(NCc3ccc(Cl)c(Cl)c3)ncnc2c(OC)c1OC [Example 19, 4-(3,4-Dichlorobenzyl)amino-6,7,8-trimethoxyquinazoline]

- IC50: 360 nM
Structure (SMILES): COc1ccc(CNc2ncnc3c(OC)c(OC)c(OC)cc23)cc1F [Example 22, 4-(3-Fluoro-4-methoxybenzyl)amino-6,7,8-trimethoxyquinazoline]

- IC50: 410 nM
Structure (SMILES): COc1ccc2ncnc(NCc3ccc4nc[nH]c4c3)c2c1 [Example 45, 4-(Benzimidazol-5-ylmethyl)amino-6-methoxyquinazoline]

- IC50: 240 nM
Structure (SMILES): COc1ccc2ncnc(NCc3ccc4c(c3)OCO4)c2c1 [Example 46, 4-(3,4-Methylenedioxybenzyl)amino-6-methoxyquinazoline]

- IC50: 32 nM
Structure (SMILES): CSc1ccc2ncnc(NCc3ccc(Cl)c(Cl)c3)c2c1 [Example 50, 4-(3,4-Dichlorobenzyl)amino-6-methylthioquinazoline]

- IC50: 69 nM
Structure (SMILES): COc1ccc(CNc2ncnc3ccc(SC)cc23)cc1F [Example 51, 4-(3-Fluoro-4-methoxybenzyl)amino-6-methylthioquinazoline]

- IC50: 30 nM
Structure (SMILES): O=[N+]([O-])c1cc(CNc2ncnc3ccc(Cl)cc23)ccc1Cl [Example 55]

- IC50: 42 nM
Structure (SMILES): Clc1ccc2ncnc(NCc3ccc(Cl)c(Cl)c3)c2c1 [Example 58, 4-(3,4-Dichlorobenzyl)amino-6-chloroquinazoline]

- IC50: 270 nM
Structure (SMILES): COc1ccc(CNc2ncnc3ccc(Cl)cc23)cc1OC [Example 59, 4-(3,4-Dimethoxybenzyl)amino-6-chloroquinazoline]

- IC50: 180 nM
Structure (SMILES): Clc1ccc2ncnc(NCc3ccc4nc[nH]c4c3)c2c1 [Example 60, 4-(Benzimidazol-5-ylmethyl)amino-6-chloroquinazoline]

- IC50: 420 nM
Structure (SMILES): COC1Cc2cc(CNc3ncnc4ccc(Cl)cc34)ccc2O1 (stereo not drawn) [Example 61, 4-(2-Methoxy-2,3-dihydrobenzofuran-5-yl)methylamino6-chloroquinazoline]
